Tests used:
[1] = tested on: MCF-7 breast cancer cells; test: Cell viability assay (MTT) MCF-7; assay type: cell-based; details: 72 h, @ 50 μM
Protocol: (§1) Cell viability assays of HGC27 and PC-3M-luc cells were performed by using the Celltiter 96 Aqueous Nonradioactive Proliferation Assay (Promega). Cells were seeded in sterile 96-well plates at a density of 2000 cells per well and incubated overnight at 37 °C and 5% CO2. Compound or vehicle were added to a final concentration of 0.5% DMSO. […] Cells were seeded at densities of 10^4 cells/well for W1 cells or 2 × 10^3 cells/well for MCF-7 cells. Tests were performed in 96-well plates (Sarstedt AG, Nümbrecht, Germany). After incubation overnight, cells were supplemented with half logarithmic dilution series of the indicated compounds and DPBS (PAN Biotech GmbH, Aidenbach, Germany) as control. Then 72 h after addition of cytostatic treatment, the MTT solution (20 μL, 5 mg/mL) was added into the wells for 1 h at 37 °C and 5% CO2 until formazan crystals were formed. The supernatant was removed, and the cells were dissolved in 200 μL of DMSO. Absorption was analyzed at 570 nm, with background subtraction at 690 nm, using a plate reader (Thermomultiscan EX, Thermo, Schwerte, Germany). Cell viability was then determined by nonlinear regression and a four-parameter logistic equation with variable hill slope. […] The significance of the difference of the effects of 33 and 4 + 57 was determined by using an unpaired, two-tailed t test with Welch’s correction, implemented in GraphPad Prism 8.4.0 (GraphPad, USA). Statistical significance was accepted if p < 0.05. Asterisks indicate *p < 0.05, **p < 0.01.

[2] = tested on: PC-3M-luc prostate cancer cells; test: Cell viability assay (MTS) PC-3M-luc; assay type: cell-based; details: 72 h, @ 50 μM
Protocol: as §1

[3] = tested on: histone H3 acetylation (marker of HDAC1-3 inhibition); test: Western blot on histone H3 hyperacetylation in MCF-7 cells; assay type: cell-based; details: 24 h, 10 µM
Protocol: Western blots on histone H3 hyperacetylation in MCF-7 cells were performed according to a previously published protocol.[72] In brief, MCF-7 were centrifuged (450g, 4 min, 22 °C) and lysed with cell extraction buffer (Thermo Fisher), supplemented with 0.1 mM PMSF, Halt Protease Inhibitor (Thermo Fisher), and Natriumorthovanadat (Thermo Fisher). Precast gels with a polymerization degree of 4–15% were used (Mini-PROTEAN TGX Stain-Free; Bio-Rad Laboratories GmbH, Munich, Germany). Proteins were transferred to Trans-Blot Turbo-PVDF membrane (Bio-Rad). The membrane was blocked with skimmed milk powder in Tris-buffered saline-Tween 20 (with 0.2% Tween 20) for 60 min, followed by three washing cycles of 10 min using Tris-buffered saline-Tween 20. Afterward, membranes were incubated with primary antibodies for ac.-Histon H3 (Cell Signal, rabbit) and GAPDH (Gene Tex, Irvine, USA, mouse) for a total of 60 min at room temperature and then incubated at 4 °C overnight. […] After rinsing of the secondary antibody, membranes were detected using ClarityECL Western Blotting Substrate (Bio-Rad). For quantitative determination, the StainFree technique was employed (Bio-Rad), as well as normalization, against the housekeeping protein GAPDH, which allows the imaging of whole lysates in SDS-PAGE before blotting and normalization against the total protein. […]

[4] = tested on: HGC27 gastric carcinoma cells; test: Cell viability assay (MTS) HGC27; assay type: cell-based; details: 72 h, @ 50 μM
Protocol: as §1

[5] = tested on: W1 ovarian cancer cells; test: Cell viability assay (MTT) W1; assay type: cell-based; details: 72 h, @ 50 μM
Protocol: as §1

[6] = target: Sirt2 (demyristoylation) (Homo sapiens, UniProt Q8IXJ6); test: Continuous Sirt2 demyristoylation assay (myristoylated peptide substrate); assay type: biochemical; details: peptide-based myristoylated substrate, triplicate; read-out: Sirt2-mediated demyristoylation IC50
Protocol: As a second method to confirm the inhibition of Sirt2-mediated demyristoylation by 33, we used a continuous Sirt2 demyristoylation assay as reported by Zessin et al.[48] In brief, this assay was performed in a black 384-well fluorescence plate in a total volume of 40 μL of Sirt assay buffer (20 mM Tris-HCl, 150 mM NaCl, 5 mg/mL MgCl2, 2 mg/mL BSA, pH 7.8). Dilution series of the inhibitor was done in DMSO. A total of 2 μL of the inhibitor dilutions were incubated with 14 μL of the peptide substrate, referred to as F4 in Zessin et al.[48] (final concentration 40 nM) and 14 μL of Sirt2 solution (final concentration 1 nM) for 5 min at room temperature. In addition to the inhibitor-containing samples, a sample without inhibitors was measured as a positive control, and a sample without enzymes was measured as a negative control. The DMSO concentration was set to 5% (v/v). The reaction was started by the addition of 10 μL of NAD^+ (final concentration 500 μM). The product formation was monitored by the change in fluorescence intensity, and the reaction rate represented the activity. Fluorescence readout was performed with a BMG Fluostar Omega plate reader at following wavelengths: Excitation wavelength: λEx = 485 ± 10 nm, emission wavelength: λEm = 530 ± 10 nm. Inhibition was calculated using the following equation: [drawing 1] […]

[7] = tested on: α-tubulin acetylation; test: Immunofluorescence microscopy of α-tubulin acetylation in PC-3M-luc cells; assay type: cell-based; details: 20 μM, 5 h
Protocol: The detection of acetylation levels of α-tubulin by immunofluorescence was performed as previously described.[47] In brief, PC-3M-luc cells (25 000 cells per well) were plated in Ibidi 8-well slides (Ibidi, catalogue no. 80826) and incubated overnight at 37 °C, 5% CO2. Next, cells were treated with 20 μM of inhibitor. After 5 h, the medium was removed and the cells washed with PBS and fixed with 4% PFA for 8–10 min at ambient temperature. Cells were rinsed three times with PBS and lysed with extraction buffer (PBS, 0.1% Triton X-100) for 3–5 min at ambient temperature. After another washing step with PBS, blocking buffer (PBS, 0.1% Triton, 5% FCS) was added for at least 10 min before incubating with monoclonal acetylated α-tubulin antibody (1:500, Sigma-Aldrich, catalogue no. T6793) in blocking buffer overnight at 4 °C. […] The cells were rinsed two times with blocking buffer and once with PBS and DAPI in mounting medium ([…] HardSet Antifade Mounting Medium with DAPI, no. H-1500-10) diluted 1:50 in PBS was added and it was incubated for 10 min in the dark. Confocal microscopy was performed with a Leica SP8 confocal microscope equipped with a 40×/1.40 oil objective (Leica Microsystems) keeping the laser settings of the images constant to allow direct comparison of signal intensities between images.

Sequence of Sirt2 (demyristoylation) (Q8IXJ6 whole entry): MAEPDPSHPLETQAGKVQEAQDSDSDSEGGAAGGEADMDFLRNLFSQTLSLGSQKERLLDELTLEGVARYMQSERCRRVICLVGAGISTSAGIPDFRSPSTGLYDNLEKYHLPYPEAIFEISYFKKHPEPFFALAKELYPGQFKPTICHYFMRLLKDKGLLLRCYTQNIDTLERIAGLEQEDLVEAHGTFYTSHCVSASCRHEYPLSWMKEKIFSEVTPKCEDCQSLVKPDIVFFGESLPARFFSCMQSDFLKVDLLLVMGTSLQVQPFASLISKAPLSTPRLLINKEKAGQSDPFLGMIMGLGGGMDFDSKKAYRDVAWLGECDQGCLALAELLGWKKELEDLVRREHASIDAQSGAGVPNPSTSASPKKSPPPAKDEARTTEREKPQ

Structure (SMILES)	MCF-7 cellular effect [1]	PC-3M-luc cellular effect [2]	Histone H3 hyperacetylation (cellular class I HDAC off-target inhibition) [3]	HGC27 cellular effect [4]	W1 cellular effect [5]	IC50 [6] [µM]	α-tubulin acetylation (immunofluorescence) [7]
Cc1cc(C)nc(SCC(=O)Nc2ncc(Cc3cccc(OCc4cn(CCCCC(=O)NCc5ccc(C(=O)NO)cc5)nn4)c3)s2)n1 [Compound 32, 4-((5-(4-((3-((2-(2-((4,6-Dimethylpyrimidin-2-yl)thio)acetamido)thiazol-5-yl)methyl)phenoxy)methyl)-1H-1,2,3-triazol-1-yl)pentanamido)methyl)-N-hydroxybenzamide]	ni ^b (ni = no inhibition (cellular effect <20% @ 50 μM))	ni ^b (ni = no inhibition (cellular effect <20% @ 50 μM))	no significant off-target inhibition of class I	ni ^b (ni = no inhibition (cellular effect <20% @ 50 μM))	ni ^b (ni = no inhibition (cellular effect <20% @ 50 μM))	–	–
COCCn1cc(COc2cccc(Cc3cnc(NC(=O)CSc4nc(C)cc(C)n4)s3)c2)nn1 [Compound 5, SirReal1.2, reference compound]	–	–	–	–	–	0.48 ± 0.12	very minor
